Experimental data reported in patent publication US8487117B2, “Atropisomers of (hydroxyalkyl) pyrrole derivatives” (Exelixis, Inc., priority 2008, dated 2013).

How the values were obtained:
[1] = target: T1, human mineralocorticoid receptor (hMR), GAL4-hMR receptor (Homo sapiens, UniProt P08235); assay: GAL4-hMR-LBD luciferase reporter assay in HEK293 cells with 1 nM aldosterone (mineralocorticoid receptor antagonistic action); assay type: cell-based; conditions: for IC50: concentration which shows Imax/2, HEK293, GAL4-hMR-LBD, luciferase, with 1 nM aldosterone, read-out: ICmax50; for Imax: maximum value, DMSO control = 0%, 1 nM aldosterone control = 100%, HEK293 luciferase reporter
T1 construct: expressed in transfected cells; host or cells: HEK293
T1 sequence (P08235 726-964 limits assumed): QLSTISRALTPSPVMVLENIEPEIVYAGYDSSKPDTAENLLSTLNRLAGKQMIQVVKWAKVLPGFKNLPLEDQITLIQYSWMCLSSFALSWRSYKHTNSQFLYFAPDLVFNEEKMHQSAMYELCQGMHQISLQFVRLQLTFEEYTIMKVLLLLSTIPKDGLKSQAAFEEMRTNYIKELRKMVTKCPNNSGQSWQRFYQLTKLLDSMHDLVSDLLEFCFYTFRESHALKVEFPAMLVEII
Protocol: A plasmid pM-hMR-LBD expressing GAL4-hMR receptor, which has a ligand binding domain (LBD, corresponds to approximately 308 amino acids at the carboxy terminus) of human mineralocorticoid receptor (hMR, NM_000901) bonded to a DNA binding domain of yeast transcription factor GAL4 (corresponding to 147 amino acids at the amino terminus), was prepared. Reporter assay was conducted by using a reporter plasmid (such as STRATAGENE CLONING SYSTEMS, pFR-Luc) including a luciferase gene, having a sequence (UAS sequence) which binds to the DNA binding domain of GAL4.
The plasmid pM-hMR-LBD and the reporter plasmid as obtained above were gene transferred into renal cell line HEK293 of human fetus by lipofection. On the next day, cells were collected by trypsin treatment, and were dispensed with DMEM culture medium containing 5% of FBS treated by activated charcoal, to a white 96-well plate (Costar) with the amount of 95 microliter per well.
The Test Compounds were used by dissolving them in dimethyl sulfoxide at a predetermined concentration, and the test compounds suitably diluted with culture media were added to the cells on the white 96-well plate so that the final concentration becomes 0.1%. When adding the Test Compounds, they were accompanied with 1 nM aldosterone. The well group of Control group 1 was added with dimethyl sulfoxide, and the well group of Control group 2 was added with 1 nM aldosterone. After addition, cultivation was carried out overnight.
On the next day, the culture media was removed, and then luciferase substrate (Wako Pure Chemical Industries, Ltd.) was prepared in accordance with the attached document and were added to each well by 50 microliters. Stirring was conducted for approximately 30 minutes, and the amount of luminescence was measured for each well by using Analyst (Molecular Devices), to obtain luciferase activity. A graph which plots relative luciferase activity values, when the luciferase activity value of Control group 1 was taken as 0% and the luciferase activity value of Control group 2 was taken as 100%, for each of the amount of the test compound addition group was made.

[2] = Plasma concentration after intragastric administration to cynomolgus monkey (LC-MS/MS); assay type: in vivo; conditions: male cynomolgus monkey, fasted, 3 mg/kg intragastric in 0.5% MC; for AUC: Area under the plasma concentration versus time curve: blood up to 48 h, noncompartment model; for Cmax: po, plasma, read-out: Cmax: Maximum concentration
Protocol: Cynomolgus monkey (male) was used, and was fasted from the day before the administration of the Test Compound.
Administration samples were prepared by adding 0.5% MC (methyl cellulose) solution to the Test Compound, so that the dose becomes 3 mg/2 mL/kg. Each of the administration samples was administered intragastrically to the cynomolgus monkey by using a tube. After the samples were administered, approximately 5 mL of 0.5% MC was administered. For each of the administration samples, a group of two cynomolgus monkeys was administered.
With respect to collection of blood, it was conducted by collecting approximately 0.5 mL of blood from femoral vein using a glass syringe treated with heparin, before administration, and 30 minutes, 1, 2, 4, 6, 8, 24 and 48 hours after administration. Blood was centrifuged (1,700×g, 15 min, 4° C.) to obtain plasma. Plasma was stored in a freezer (−20° C.) until pretreatment.
Preparation of standard solution and internal standard (“IS”) solution: Each of the Test Compounds was dissolved in DMSO (dimethyl sulfoxide) to prepare a solution of 10 mM each. Each of the compound solution was diluted with acetonitrile, and thus standard solution was prepared. Further, niflumic acid (Wako Pure Chemical Industries, Ltd.) was dissolved in DMSO at the concentration of 2 mM, followed by dilution with acetonitrile to prepare an IS solution of 2 μM.
Pretreatment of plasma samples: 20 μL of plasma sample was collected, and then 25 μL of purified water, 100 μL of acetonitrile, and 100 μL of methanol was added. For the preparation of a calibration curve, 25 μL of purified water, 20 μL of each of the standard solutions (acetonitrile solution), 80 μL of acetonitrile, and 100 μL of methanol were added to 20 μL of blank plasma. 40 μL of the acetonitrile solution of IS was added to all of the samples, and then the samples were stirred, filtered by suction using Captiva filter plate (Varian, Inc.), and then the filtrate was used as the sample for LC-MS/MS analysis.
Quantitative Determination of Test Compound: Concentration in plasma was analyzed by LC-MS/MS method for each Test Compound.
[HPLC Analysis Conditions]
• HPLC: WATERS 2795 (Waters Corporation); • Column: CAPCELL PAK C8, 2.0 mm I.D.×50 mm, 5 μm (Shiseido Co., Ltd.) • Mobile Phase: A=5 mM ammonium acetate aqueous solution, B=acetonitrile [MS/MS Analysis Conditions] • MS: Quattro micro API (Waters Corporation) • Ionization Method: Electrospray Ionization (“ESI”) • Ionization Mode: Positive • Detection Mode: MRM • Analysis: Pharmacokinetic parameter was calculated from concentration of each of the drugs in plasma, by using WinNonlin Professional (Ver. 4.0.1, Pharsight Corporation). Here, noncompartment model was used as the model for parameter calculation. (Results)

Row | SMILES | IC50 [1] [nM] | Imax [1] [%] | AUC: Area under the plasma concentration versus time curve [2] [ng·h/mL] | Cmax [2] [ng/mL]
1 | Cc1c(C(=O)Nc2ccc(S(C)(=O)=O)cc2)cn([C@H](C)[C@H](C)O)c1-c1ccc(Cl)cc1C(F)(F)F (atropisomer, axis not shown) [Example 3, 5-[4-Chloro-2-(trifluoromethyl)phenyl]-1-[(1R,2S)-2-hydroxy-1-methylpropyl]-4-methyl-N-[4-(methylsulfonyl)phenyl]-1H-pyrrole-3-carboxamide] | 6.7 | 95 | – | –
2 | Cc1c(C(=O)Nc2ccc(S(C)(=O)=O)cc2)cn(CCO)c1-c1ccccc1C(F)(F)F (racemic) [Comparative compound, 1-(2-hydroxyethyl)-4-methyl-N-[4-(methylsulfonyl)phenyl]-5-[2-(trifluoromethyl)phenyl]-1H-pyrrole-3-carboxamide, reference compound] | 5.3 | 105 | 4090 | 230
3 | Cc1c(C(=O)Nc2ccc(S(C)(=O)=O)cc2)cn([C@H](C)[C@H](C)O)c1-c1ccccc1C(F)(F)F (single isomer, unassigned) [Example 1-isomer A] | 2.9 | 117 | – | –
4 | Cc1c(C(=O)Nc2ccc(S(C)(=O)=O)cc2)cn([C@H](C)[C@H](C)O)c1-c1ccccc1C(F)(F)F (single isomer, unassigned) [Example 1-isomer B] | > 1000 | – | – | –
5 | Cc1c(C(=O)Nc2ccc(S(C)(=O)=O)cc2)cn([C@H](C)[C@H](C)O)c1-c1ccc(F)cc1C(F)(F)F (single isomer, unassigned) [Example 2-isomer A] | 3.8 | 103 | 30320 | 1280
6 | Cc1c(C(=O)Nc2ccc(S(C)(=O)=O)cc2)cn([C@H](C)[C@H](C)O)c1-c1ccc(F)cc1C(F)(F)F (single isomer, unassigned) [Example 2-isomer B] | > 1000 | – | – | –
7 | Cc1c(C(=O)Nc2ccc(S(C)(=O)=O)cc2)cn([C@H](C)[C@H](C)O)c1-c1ccc(Cl)cc1C(F)(F)F (single isomer, unassigned) [Example 3-isomer A] | 4.6 | 108 | 42490 | 1440
8 | Cc1c(C(=O)Nc2ccc(S(C)(=O)=O)cc2)cn([C@H](C)[C@H](C)O)c1-c1ccc(Cl)cc1C(F)(F)F (single isomer, unassigned) [Example 3-isomer B] | > 1000 | – | – | –
9 | Cc1c(C(=O)Nc2ccc(S(C)(=O)=O)cc2)cn([C@H](C)[C@H](C)O)c1-c1ccc(F)cc1Cl (single isomer, unassigned) [Example 4-isomer A] | 11 | 103 | – | –
10 | Cc1c(C(=O)Nc2ccc(S(C)(=O)=O)cc2)cn([C@H](C)[C@H](C)O)c1-c1ccc(F)cc1Cl (single isomer, unassigned) [Example 4-isomer B] | > 1000 | – | – | –
11 | Cc1c(C(=O)Nc2ccc(S(C)(=O)=O)cc2)cn([C@H](C)[C@H](C)O)c1-c1ccccc1C(F)(F)F [Example 1, 1-[(1R,2S)-2-Hydroxy-1-methylpropyl]-4-methyl-N-[4-(methylsulfonyl)phenyl]-5-[2-(trifluoromethyl)phenyl]-1H-pyrrole-3-carboxamide] | 6.6 | 115 | – | –
12 | Cc1c(C(=O)Nc2ccc(S(C)(=O)=O)cc2)cn([C@H](C)[C@H](C)O)c1-c1ccc(F)cc1C(F)(F)F [Example 2, 5-[4-Fluoro-2-(trifluoromethyl)phenyl]-1-[(1R,2S)-2-hydroxy-1-methylpropyl]-4-methyl-N-[4-(methylsulfonyl)phenyl]-1H-pyrrole-3-carboxamide] | 6.2 | 88 | – | –
13 | Cc1c(C(=O)Nc2ccc(S(C)(=O)=O)cc2)cn([C@H](C)[C@H](C)O)c1-c1ccc(F)cc1Cl [Example 4, 5-(2-Chloro-4-fluorophenyl)-1-[(1R,2S)-2-hydroxy-1-methylpropyl]-4-methyl-N-[4-(methylsulfonyl)phenyl]-1H-pyrrole-3-carboxamide] | 10 | 106 | – | –
